Measured values from US10294234B2, “HIV inhibitor compounds” (priority 2017, dated 2019).
Like-named read-outs stand apart in the source and are kept apart here.

How the values were obtained:
[1] = tested on: HIV-1 (IIIB) in MT-4 cells; assay: MT-4 HIV assay; assay type: cell-based; details: Human immunodeficiency virus 1, MT4, 120 h
Procedure, shortened: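 MT-4 cells infected with HIV-1 IIIB (1:250 stock dilution) were incubated with 1:3 serially diluted compounds in RPMI with 10% FBS for 5 days at 37 °C. Cell Titer Glo luminescence was the readout. Plates included mock-infected wells, no-drug wells and 5 uM AZT controls.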

[2] = Procedure, shortened: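 Compounds at 1 uM were incubated in duplicate with dog, rat or human liver microsomes (0.5 mg/mL protein) and an NADPH-regenerating system, sampled at 2, 12, 25, 45 and 65 minutes. Remaining parent was measured by LC/MS/MS, and Clint was calculated from the in vitro t1/2.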
[3] = HIV-1 (IIIB), MT-4 cells, 5 days, Cell Titer Glo, read-out: EC50
[4] = human liver microsomes 0.5 mg/mL, 1 uM compound, NADPH
[5] = rat liver microsomes 0.5 mg/mL, 1 uM compound, NADPH

COC(=O)N[C@H](C(=O)N[C@@H](Cc1ccc(C#Cc2ccc(N3C[C@H]4C[C@@H]3CN4C3COC3)nc2)cc1)[C@@H](O)CN(Cc1c(F)cc(-c2cc(F)ccn2)cc1F)NC(=O)[C@@H](NC(=O)OC)C(C)(C)C(F)(F)F)C(C)(C)C(F)(F)F [Example 138, Methyl ((5S,8S,9S,14S)-11-(2,6-difluoro-4-(4-fluoropyridin-2-yl)benzyl)-16,16,16-trifluoro-9-hydroxy-15,15-dimethyl-8-(4-((6-((1R,4R)-5-(oxetan-3-yl)-2,5-diazabicyclo[2.2.1]heptan-2-yl)pyridin-3-yl)ethynyl)benzyl)-3,6,13-trioxo-5-(1,1,1-trifluoro-2-methylpropan-2-yl)-2-oxa-4,7,11,12-tetraazahexadecan-14-yl)carbamate]
EC50 [1, 3]: 2.32 nM
Human Pred Cl. [2, 4]: 0.17 L/H/kg
Rat. Pred. Cl. [2, 5]: 0.95 L/H/kg

COC(=O)N[C@H](C(=O)N[C@@H](Cc1ccc(C#Cc2ccc(N3CC4CCC(C3)N4C3(C)COC3)nc2)cc1)[C@@H](O)CN(Cc1c(F)cc(-c2ccn(C(F)F)n2)cc1F)NC(=O)[C@@H](NC(=O)OC)C(C)(C)C(F)(F)F)C(C)(C)C(F)(F)F [Example 144, Methyl ((5S,8S,9S,14S)-11-(4-(1-(difluoromethyl)-1H-pyrazol-3-yl)-2,6-difluorobenzyl)-16,16,16-trifluoro-9-hydroxy-15,15-dimethyl-8-(4-((6-(8-(3-methyloxetan-3-yl)-3,8-diazabicyclo[3.2.1]octan-3-yl)pyridin-3-yl)ethynyl)benzyl)-3,6,13-trioxo-5-(1,1,1-trifluoro-2-methylpropan-2-yl)-2-oxa-4,7,11,12-tetraazahexadecan-14-yl)carbamate]
EC50 [1, 3]: 5.12 nM
Human Pred Cl. ([2]; human, microsomes): 0.95 L/H/kg

COC(=O)N[C@H](C(=O)N[C@@H](Cc1ccc(C#Cc2ccc(N3CCN([C@H]4CCOC4)CC3)nc2)cc1)[C@@H](O)CN(Cc1c(F)cc(-c2ccn(C(F)F)n2)cc1F)NC(=O)[C@@H](NC(=O)OC)C(C)(C)C(F)(F)F)C(C)(C)C(F)(F)F [Example 145, Methyl ((5S,8S,9S,14S)-11-(4-(1-(difluoromethyl)-1H-pyrazol-3-yl)-2,6-difluorobenzyl)-16,16,16-trifluoro-9-hydroxy-15,15-dimethyl-3,6,13-trioxo-8-(4-((6-(4-((S)-tetrahydrofuran-3-yl)piperazin-1-yl)pyridin-3-yl)ethynyl)benzyl)-5-(1,1,1-trifluoro-2-methylpropan-2-yl)-2-oxa-4,7,11,12-tetraazahexadecan-14-yl)carbamate]
EC50 [1]: 5.06 nM
Human Pred Cl. [2, 4]: <0.11 L/H/kg

COC(=O)N[C@H](C(=O)N[C@@H](Cc1ccc(C#Cc2ccc(N3CCN([C@@H]4CCOC4)CC3)nc2)cc1)[C@@H](O)CN(Cc1c(F)cc(-c2ccn(C(F)F)n2)cc1F)NC(=O)[C@@H](NC(=O)OC)C(C)(C)C(F)(F)F)C(C)(C)C(F)(F)F [Example 146, Methyl ((5S,8S,9S,14S)-11-(4-(1-(difluoromethyl)-1H-pyrazol-3-yl)-2,6-difluorobenzyl)-16,16,16-trifluoro-9-hydroxy-15,15-dimethyl-3,6,13-trioxo-8-(4-((6-(4-((R)-tetrahydrofuran-3-yl)piperazin-1-yl)pyridin-3-yl)ethynyl)benzyl)-5-(1,1,1-trifluoro-2-methylpropan-2-yl)-2-oxa-4,7,11,12-tetraazahexadecan-14-yl)carbamate]
EC50 [1, 3]: 8.17 nM
Human Pred Cl. [2, 4]: <0.11 L/H/kg

COC(=O)N[C@H](C(=O)N[C@@H](Cc1ccc(C#Cc2ccc(N3CC4CCC(C3)N4C3COC3)nc2)cc1)[C@@H](O)CN(Cc1c(F)cc(-c2ccc(N3CC4CCC(C3)N4C3COC3)nc2)cc1F)NC(=O)[C@@H](NC(=O)OC)C(C)(C)C(F)(F)F)C(C)(C)C(F)(F)F [Example 147, Methyl ((5S,8S,9S,14S)-11-(2,6-difluoro-4-(6-(8-(oxetan-3-yl)-3,8-diazabicyclo[3.2.1]octan-3-yl)pyridin-3-yl)benzyl)-16,16,16-trifluoro-9-hydroxy-15,15-dimethyl-8-(4-((6-(8-(oxetan-3-yl)-3,8-diazabicyclo [3.2.1]octan-3-yl)pyridin-3-yl)ethynyl)benzyl)-3,6,13-trioxo-5-(1,1,1-trifluoro-2-methylpropan-2-yl)-2-oxa-4,7,11,12-tetraazahexadecan-14-yl)carbamate]
EC50 [1, 3]: 6.79 nM
Human Pred Cl. ([2]; human, microsomes): <0.11 L/H/kg

COC(=O)N[C@H](C(=O)N[C@@H](Cc1ccc(C#Cc2cnc(N3CC4CCC(C3)N4C3COC3)cc2C)cc1)[C@@H](O)CN(Cc1c(F)cc(-c2cnn(C(F)F)c2)cc1F)NC(=O)[C@@H](NC(=O)OC)C(C)(C)C(F)(F)F)C(C)(C)C(F)(F)F [Example 154, Methyl ((5S,8S,9S,14S)-11-(4-(1-(difluoromethyl)-1H-pyrazol-4-yl)-2,6-difluorobenzyl)-16,16,16-trifluoro-9-hydroxy-15,15-dimethyl-8-(4-((4-methyl-6-(8-(oxetan-3-yl)-3,8-diazabicyclo[3.2.1]octan-3-yl)pyridin-3-yl)ethynyl)benzyl)-3,6,13-trioxo-5-(1,1,1-trifluoro-2-methylpropan-2-yl)-2-oxa-4,7,11,12-tetraazahexadecan-14-yl)carbamate]
EC50 [1, 3]: 4.81 nM
Human Pred Cl. ([2]; human, microsomes): <0.11 L/H/kg
Rat. Pred. Cl. ([2]; rat, microsomes): <0.18 L/H/kg

COC(=O)N[C@H](C(=O)N[C@@H](Cc1ccc(C#Cc2ccc(N3CC4CCC(C3)N4C3COC3)nc2)cc1)[C@@H](O)CN(Cc1ccc(-c2ccn(C(F)F)n2)cc1)NC(=O)[C@@H](NC(=O)OC)C(C)(C)C(F)(F)F)C(C)(C)C(F)(F)F [Example 158, Methyl ((5S,8S,9S,14S)-11-(4-(1-(difluoromethyl)-1H-pyrazol-3-yl)benzyl)-16,16,16-trifluoro-9-hydroxy-15,15-dimethyl-8-(4-((6-(8-(oxetan-3-yl)-3,8-diazabicyclo[3.2.1]octan-3-yl)pyridin-3-yl)ethynyl)benzyl)-3,6,13-trioxo-5-(1,1,1-trifluoro-2-methylpropan-2-yl)-2-oxa-4,7,11,12-tetraazahexadecan-14-yl)carbamate]
EC50 [1, 3]: 4.37 nM
Human Pred Cl. ([2]; human, microsomes): <0.11 L/H/kg
Rat. Pred. Cl. ([2]; rat, microsomes): 0.22 L/H/kg

COC(=O)N[C@H](C(=O)N[C@@H](Cc1ccc(C#Cc2cnc(N3CCN(C)C(=O)C3)nc2)cc1)[C@@H](O)CN(Cc1c(F)cc(-c2ccn(C(F)F)n2)cc1F)NC(=O)[C@@H](NC(=O)OC)C(C)(C)C(F)(F)F)C(C)(C)C(F)(F)F [Example 159, methyl ((5S,8S,9S,14S)-11-(4-(1-(difluoromethyl)-1H-pyrazol-3-yl)-2,6-difluorobenzyl)-16,16,16-trifluoro-9-hydroxy-15,15-dimethyl-8-(4-((2-(4-methyl-3-oxopiperazin-1-yl)pyrimidin-5-yl)ethynyl)benzyl)-3,6,13-trioxo-5-(1,1,1-trifluoro-2-methylpropan-2-yl)-2-oxa-4,7,11,12-tetraazahexadecan-14-yl)carbamate]
EC50 [1]: 3.83 nM
Human Pred Cl. [2, 4]: <0.11 L/H/kg

COC(=O)N[C@H](C(=O)N[C@@H](Cc1ccc(C#Cc2ccc(N3CC4(C3)CN(C3COC3)C4)nc2)cc1)[C@@H](O)CN(Cc1c(F)cc(-c2ccn(C(F)F)n2)cc1F)NC(=O)[C@@H](NC(=O)OC)C(C)(C)C(F)(F)F)C(C)(C)C(F)(F)F [Example 163, Methyl ((5S,8S,9S,14S)-11-(4-(1-(difluoromethyl)-1H-pyrazol-3-yl)-2,6-difluorobenzyl)-16,16,16-trifluoro-9-hydroxy-15,15-dimethyl-8-(4-((6-(6-(oxetan-3-yl)-2,6-diazaspiro[3.3]heptan-2-yl)pyridin-3-yl)ethynyl)benzyl)-3,6,13-trioxo-5-(1,1,1-trifluoro-2-methylpropan-2-yl)-2-oxa-4,7,11,12-tetraazahexadecan-14-yl)carbamate]
EC50 [1]: 2.32 nM
Human Pred Cl. [2, 4]: <0.11 L/H/kg

COC(=O)N[C@H](C(=O)N[C@@H](Cc1ccc(C#Cc2ccc(N3C[C@@H]4CN(C5COC5)C[C@@H]4C3)nc2)cc1)[C@@H](O)CN(Cc1c(F)cc(-c2ccn(C(F)F)n2)cc1F)NC(=O)[C@@H](NC(=O)OC)C(C)(C)C(F)(F)F)C(C)(C)C(F)(F)F [Example 165, Methyl ((5S,8S,9S,14S)-11-(4-(1-(difluoromethyl)-1H-pyrazol-3-yl)-2,6-difluorobenzyl)-16,16,16-trifluoro-9-hydroxy-15,15-dimethyl-8-(4-((6-((3aR,6aS)-5-(oxetan-3-yl)hexahydropyrrolo[3,4-c]pyrrol-2(1H)-yl)pyridin-3-yl)ethynyl)benzyl)-3,6,13-trioxo-5-(1,1,1-trifluoro-2-methylpropan-2-yl)-2-oxa-4,7,11,12-tetraazahexadecan-14-yl)carbamate]
EC50 [1, 3]: 4.05 nM
Human Pred Cl. [2, 4]: 0.56 L/H/kg
Rat. Pred. Cl. [2, 5]: 3.2 L/H/kg

CCN1C2CCC1CN(c1ccc(C#Cc3ccc(C[C@H](NC(=O)[C@@H](NC(=O)OC)C(C)(C)C(F)(F)F)[C@@H](O)CN(Cc4c(F)cc(-c5cnn(C(F)F)c5)cc4F)NC(=O)[C@@H](NC(=O)OC)C(C)(C)C(F)(F)F)cc3)cn1)C2 [Example 167, Methyl ((5S,8S,9S,14S)-11-(4-(1-(difluoromethyl)-1H-pyrazol-4-yl)-2,6-difluorobenzyl)-8-(4-((6-(8-ethyl-3,8-diazabicyclo[3.2.1]octan-3-yl)pyridin-3-yl)ethynyl)benzyl)-16,16,16-trifluoro-9-hydroxy-15,15-dimethyl-3,6,13-trioxo-5-(1,1,1-trifluoro-2-methylpropan-2-yl)-2-oxa-4,7,11,12-tetraazahexadecan-14-yl)carbamate]
EC50 [1, 3]: 4.97 nM
Human Pred Cl. ([2]; human, microsomes): <0.11 L/H/kg
